Measurements taken from US5420126A, “3,4-dihydro-2H-1,4-benzoxazine derivatives and pharmaceutical compositions containing the same” (Yamanouchi Pharmaceutical Co., Ltd., priority 1989, dated 1995).

Tests used:
[1] = system: 3,4-diaminopyridine-induced rhythmic contractions of left coronary artery ring segments; assay: Inhibition of 3,4-diaminopyridine-induced rhythmic contractions (frequency) in isolated coronary artery rings; design: species or system Mongrel dogs; settings: Canis lupus familiaris; isolated dog coronary artery rings; 3,4-diaminopyridine 10 mM; 37° C.; read-out: IC50, inhibitory effect on the frequency of 3,4-diaminopyridine-induced rhythmic contractions
Experimental: (§1) The compounds, when given intravenously, reduced the blood pressure and increased the coronary blood flow in the dose range of 1 to 1,000 μg/kg and, when administered into the coronary artery, they dilated the coronary artery in the dose range of 0.3 to 100 μg.
(1) Effects on 3,4-diaminopyridine-induced rhythmic contractions
The method of Uchida and Sugimoto (Myakkangaku, 24, 133-143, 1984) was used. Mongrel dogs of either sex were anesthetized with pentobarbital (30 mg/kg i.v.) and bled to death and, then, the heart was excised from each animal. In the Krebs-Henseleit solution, the left coronary circumflex branch or the anterior descending branch was isolated and cut into rings, about 2 mm in width. The ring segment was fixed to a stainless steel hook and suspended in a Krebs-Henseleit bath (37° C.) aerated with 95%O2 -5%CO2 gas mixture under a tension load of 1.0 g, and isometric contractions were recorded.
After the specimen was stabilized for 30 minutes, rhythmic contractions were induced by addition of 3,4-diaminopyridine (10 mM). When the amplitude and frequency of rhythmic contractions became substantially steady, cumulative addition of the test compound to the organ bath was started. The concentration-response curves for the amplitude and frequency of contractions were constructed and the efficacy was evaluated.
The inhibitory effect on the frequency of contractions is shown in Column (1) in Table 1.

[2] = system: cardiovascular system (mean blood pressure, coronary blood flow); assay: Effects on the cardiovascular system in anesthetized dogs (i.v.); format: in vivo, Mongrel dogs
Experimental: as §1
(2) Effects on the cardiovascular system
Mongrel dogs of either sex were anesthetized with pentobarbital, 30 mg/kg i.v. and, after tracheal intubation, the experiment was performed under artificial respiration. After thoracotomy, heart rate, blood pressure, left ventricular pressure, max dLVP/dt, pulmonary arterial pressure, central venous pressure, cardiac output and coronary blood flow were measured. The test compound was administered through a cannula indwelt in the femoral vein and the efficacy was evaluated.
(3) Coronary vasodilating effect

[3] = system: spontaneously hypertensive rats (SHR); assay: Hypotensive effect, oral, in conscious spontaneously hypertensive rats (SHR); format: in vivo, Spontaneously hypertensive rats (SHR) of Okamoto-Aoki strain
Experimental: (§2) Then, in connection with Examples 1 and 2, the hypotensive effect of the test compound given orally in conscious spontaneously hypertensive rats (SHR) and the intravenous acute toxicity in mice were determined.
Spontaneously hypertensive rats (SHR) of Okamoto-Aoki strain were anesthetized with pentobarbital, 60 mg/kg i.p. Then, a cannula for blood pressure measurement was indwelt in the left common carotid artery and the other end of the cannula was led out extracorporeally from the posterior neck. After a stabilization period of 4-5 postoperative days, the blood pressure and heart rate were measured without restraint under no anesthesia. The test compound was suspended in 0.5% methylcellulose solution and the suspension was orally administered in a volume of 5 ml/kg and the efficacy was evaluated.

[4] = Acute toxic effect (LD50), intravenous; settings: mouse, in vivo, i.v. (caudal vein), male mice, up and down method, read-out: LD50, acute toxic dose
Experimental: as §2
The acute toxic dose (LD50) of the test compound administered into the caudal vein was determined by the up and down method in male mice.

Row | IC50 [1] | Compound | MBP: mean blood pressure-lowering effect (percent reduction) ([2]; 10 μg/kg i.v.) | MBP: mean blood pressure-lowering effect ([3]; 300 μg/kg p.o.) | LD50 [4] | MBP: mean blood pressure-lowering effect (percent reduction) ([2]; 3 μg/kg i.v.) | MBP: mean blood pressure-lowering effect ([3]; 30 μg/kg p.o.)
1 | 0.07 µM | CC(=O)CN1CC(C)(C)Oc2ccc([N+](=O)[O-])cc21 [Example 38, 4-Acetonyl-3,4-dihydro-2,2-dimethyl-6-nitro-2H-1,4-benzoxazine] | -23 Δ% |  |  |  | 
2 | 0.01 µM | CC1(C)CN(C2=CCCC2=O)c2cc([N+](=O)[O-])ccc2O1 [Example 70, 3,4-Dihydro-2,21-dimethyl-6-nitro-4-(5-oxo-1-cyclopenten-1-yl) -2H-1,4-benzoxazine] | -9 Δ% |  |  |  | 
3 | 0.05 µM | CC1(C)CN(N2CCCC2=O)c2cc([N+](=O)[O-])ccc2O1 [41(4), 3,4-dihydro-2,2-dimethyl-4-(2-oxo-1-pyrrolidinyl)-6-nitro-2H-1,4-benzoxazine] |  |  |  | -20 Δ% | 
4 | 0.02 µM | CN(C)C(=O)CN1CC(C)(C)Oc2ccc([N+](=O)[O-])cc21 [Example 56, 2-(3,4-dihydro-2,2-dimethyl-6-nitro-2H-1,4-benzoxazin-4-yl)-N,N-dimethylacetamide] |  |  |  | -11 Δ% | 

Row | Compound | IC50 [1] | MBP: mean blood pressure-lowering effect (percent reduction) ([2]; 10 μg/kg i.v.) | MBP: mean blood pressure-lowering effect ([3]; 300 μg/kg p.o.) | LD50 [4] | MBP: mean blood pressure-lowering effect (percent reduction) ([2]; 3 μg/kg i.v.) | MBP: mean blood pressure-lowering effect ([3]; 30 μg/kg p.o.)
5 | CC1(C)CN(c2cccc[n+]2[O-])c2cc(C#N)ccc2O1 [Example 2, 2-(6-cyano-3,4-dihydro-2,2-dimethyl-2H-1,4-benzoxazin-4-yl)pyridine N-oxide] | 0.24 µM | -20 Δ% | -40 Δ% | > 60 mg/kg |  | 
6 | CC1(C)CN(c2cccc[n+]2[O-])c2cc([N+](=O)[O-])ccc2O1 [Example 1, 2-(3,4-dihydro-2,2-dimethyl-6-nitro-2H-1,4-benzoxazin-4-yl)pyridine N-oxide] | 0.01 µM |  |  | 50.4 mg/kg | -16 Δ% | -25 Δ%
7 | CC1(C)Oc2ccc(C#N)cc2C(N2CCCC2=O)C1O (centres unmarked) [Cromakalim, reference compound] | 0.39 µM | -28 Δ% | -35 Δ% | 49.7 mg/kg |  | 
